This passage reports 3 h FOB score results from the OligoGym collection.

HELM strings list units from the 5' end as sugar, base in round brackets, then linkage (d deoxyribose, r ribose, m 2'-O-methyl, p phosphodiester). Strings are as the collection lists them; they lack the last nucleoside at the 3' end of the tested compound. [moe] = 2'-O-(2-methoxyethyl) (MOE); [sp] = phosphorothioate linkage; [m5C] = 5-methylcytosine

This data set has as its target LRRK2. The data set is described as follows: mouse, dose not given. The settings on record: ASO.
In the case of “RNA1{[moe]([m5C])[sp].[moe]([m5C])p.[moe](A)p.[moe]([m5C])p.[moe](A)[sp].d(A)[sp].d(A)[sp].d([m5C])[sp].d(T)[sp].d([m5C])[sp].d(A)[sp].d(T)[sp].d(G)[sp].d(G)[sp].d(A)[sp].[moe]([m5C])p.[moe](T)p.[moe](T)[sp].[moe]([m5C])}$$$$ (last 3' nucleoside missing)”, the 3 h FOB score worked out at 6 score 0-7.

The substance “RNA1{[moe](T)[sp].[moe](T)p.[moe](A)[sp].[moe](A)[sp].[moe]([m5C])[sp].d(A)[sp].d(A)[sp].d(T)[sp].d(A)[sp].d(T)[sp].d([m5C])[sp].d(A)[sp].d(T)[sp].d(A)[sp].d(T)[sp].[moe](A)[sp].[moe](A)p.[moe](T)[sp].[moe]([m5C])}$$$$ (last 3' nucleoside missing)” registered a 3 h FOB score of 0 score 0-7.

In the case of “RNA1{[moe](A)[sp].[moe](A)p.[moe](G)[sp].[moe](T)[sp].[moe]([m5C])[sp].d([m5C])[sp].d(A)[sp].d(A)[sp].d(A)[sp].d(T)[sp].d(G)[sp].d(T)[sp].d(G)[sp].d(T)[sp].d([m5C])[sp].[moe](A)[sp].[moe](A)p.[moe](A)[sp].[moe]([m5C])}$$$$ (last 3' nucleoside missing)”, the 3 h FOB score was 5 score 0-7.

“RNA1{[moe](T)[sp].[moe](G)p.[moe]([m5C])[sp].[moe](T)[sp].[moe](T)[sp].d(T)[sp].d([m5C])[sp].d(A)[sp].d(T)[sp].d(A)[sp].d(G)[sp].d([m5C])[sp].d(T)[sp].d(T)[sp].d([m5C])[sp].[moe]([m5C])[sp].[moe](A)p.[moe]([m5C])[sp].[moe]([m5C])}$$$$ (last 3' nucleoside missing)” registered a 3 h FOB score of 4 score 0-7.

Substance “RNA1{[moe](G)[sp].[moe](T)p.[moe](T)p.[moe](T)p.[moe]([m5C])[sp].d(A)[sp].d(T)[sp].d(T)[sp].d([m5C])[sp].d(G)[sp].d(G)[sp].d(T)[sp].d(T)[sp].d(A)[sp].d(T)[sp].[moe](A)p.[moe](A)p.[moe](G)[sp].[moe](G)}$$$$ (last 3' nucleoside missing)” returned a 3 h FOB score of 7 score 0-7.

For the substance “RNA1{[moe](A)[sp].[moe](G)p.[moe](T)p.[moe](T)[sp].[moe]([m5C])[sp].d([m5C])[sp].d(T)[sp].d(T)[sp].d([m5C])[sp].d(A)[sp].d(G)[sp].d(T)[sp].d([m5C])[sp].d(T)[sp].d([m5C])[sp].[moe](A)p.[moe](A)p.[moe](G)[sp].[moe](G)}$$$$ (last 3' nucleoside missing)”, the 3 h FOB score turned out to be 7 score 0-7.

Turning to “RNA1{[moe](T)[sp].[moe](T)p.[moe]([m5C])[sp].[moe](A)[sp].[moe](T)[sp].d(T)[sp].d([m5C])[sp].d(G)[sp].d(G)[sp].d(T)[sp].d(T)[sp].d(A)[sp].d(T)[sp].d(A)[sp].d(A)[sp].[moe](G)[sp].[moe](G)p.[moe]([m5C])[sp].[moe](A)}$$$$ (last 3' nucleoside missing)”, the 3 h FOB score came out at 6 score 0-7.

“RNA1{[moe](T)[sp].[moe]([m5C])p.[moe](T)p.[moe](T)p.[moe]([m5C])[sp].d(A)[sp].d(G)[sp].d(T)[sp].d(T)[sp].d([m5C])[sp].d([m5C])[sp].d(T)[sp].d(T)[sp].d([m5C])[sp].d(A)[sp].[moe](G)p.[moe](T)p.[moe]([m5C])[sp].[moe](T)}$$$$ (last 3' nucleoside missing)” came in with a 3 h FOB score of 3 score 0-7.

Regarding “RNA1{[moe](G)[sp].[moe](G)p.[moe](A)p.[moe]([m5C])p.[moe](T)[sp].d(T)[sp].d([m5C])[sp].d([m5C])[sp].d(A)[sp].d([m5C])[sp].d(A)[sp].d(T)[sp].d(T)[sp].d(A)[sp].d(T)[sp].[moe](T)p.[moe](G)p.[moe]([m5C])[sp].[moe](A)}$$$$ (last 3' nucleoside missing)”, the 3 h FOB score amounted to 0 score 0-7.
